From patent publication EP1561465A2, “Methods of use of fluoroquinolone compounds against bacteria” (LG Life Sciences, Ltd., priority 1999, dated 2001)
≈ marks a conversion by molar mass, not a printed value. Like-named read-outs stand apart in the source and are kept apart here.

What was measured:
Format in all cases: cell-based
[1] = test system: Staphylococcus aureus; experiment: MIC by NCCLS reference broth microdilution, 450 respiratory tract pathogens
[2] = test system: Enterococcus faecalis; experiment: MIC by agar dilution (NCCLS), 411 isolates Buenos Aires 1998-99; conditions: Enterococcus faecalis (n = 48)
[3] = test system: Enterococcus faecium; experiment: MIC by agar macrodilution (NCCLS), 373 Gram positive isolates, Athens 1998
[4] = test system: Enterococcus faecalis; experiment: MIC by NCCLS broth microdilution, 1100 Japanese clinical isolates 1997-1998; conditions: for MIC90 / MIC50: Enterococcus faecalis
[5] = test system: Morganella morganii; experiment: as above; conditions: Morganella morganii (n=40)
[6] = test system: Shigella spp.; experiment: as above; conditions: Shigella spp. (n=34)
[7] = test system: Mycobacterium tuberculosis (MTB); experiment: MIC by proportions method (NCCLS M24-T, 1995), 82 MTB strains; conditions: compared with the other quinolones
[8] = test system: Streptococcus pneumoniae; experiment: MIC by NCCLS broth microdilution, 1100 Japanese clinical isolates 1997-1998; conditions: for MIC50 / MIC90 / MIC: Streptococcus pneumoniae; for MIC50: read-out: MIC50; for MIC90: read-out: MIC90; for MIC: Streptococcus pneumoniae quinolone resistant
[9] = test system: Escherichia coli; experiment: MIC by agar dilution (NCCLS), 322 nosocomial Gram negative isolates, Athens 1998; conditions: n = 57 isolates
[10] = test system: Enterobacter spp.; experiment: as above; conditions: n = 57 isolates
[11] = test system: Salmonella spp.; experiment: MIC by agar dilution (NCCLS M7-A4), 288 enteropathogenic isolates, gemifloxacin and 15 other antimicrobials; conditions: read-out: MIC
[12] = test system: Shigella spp.; experiment: MIC by agar dilution (NCCLS M7-A4), 288 enteropathogenic isolates, eight quinolones; conditions: Shigella spp. (n = 21)
[13] = test system: Escherichia coli; experiment: MIC by NCCLS broth microdilution, 1100 Japanese clinical isolates 1997-1998; conditions: for MIC50 / MIC90: Escherichia coli
[14] = test system: Enterococcus faecalis; experiment: MIC by agar macrodilution (NCCLS), 373 Gram positive isolates, Athens 1998
[15] = test system: P. aeruginosa; experiment: MIC by two-fold serial agar dilution, quinolone-resistant strains; conditions: Pseudomonas aeruginosa
[16] = test system: Haemophilus influenzae; experiment: MIC by agar dilution (NCCLS), 411 isolates Buenos Aires 1998-99; conditions: Haemophilus influenzae (n = 65)
[17] = test system: Moraxella catarrhalis; experiment: MIC by NCCLS reference broth microdilution, 450 respiratory tract pathogens
[18] = test system: Staphylococcus aureus; experiment: MIC by NCCLS broth microdilution, 1100 Japanese clinical isolates 1997-1998; conditions: for MIC50 / MIC90 / MIC: Staphylococcus aureus; for MIC: Staphylococcus aureus quinolone resistant
[19] = test system: Moraxella catarrhalis; experiment: MIC by two-fold serial agar dilution, Sensitivity Disk agar-N (Kitasato isolates); conditions: Moraxella catarrhalis (22)
[20] = β-lactamase positive and erythromycin resistant (n = 10)
[21] = Enterococcus faecalis ciprofloxacin resistant (n=15)
[22] = Enterococcus faecalis ciprofloxacin susceptible (n=24)
[23] = Streptococcus pneumoniae amoxicillin resistant (n=40)
[24] = Streptococcus pneumoniae amoxicillin susceptible (n=35)
[25] = Streptococcus pneumoniae erythromycin resistant (n=34)
[26] = Streptococcus pneumoniae erythromycin susceptible (n=11)
[27] = Escherichia coli ciprofloxacin susceptible (n=37)
[28] = Staphylococcus aureus oxacillin resistant (n=57)
[29] = Staphylococcus aureus oxacillin susceptible (n=41)

CO/N=C1\CN(c2nc3c(cc2F)c(=O)c(C(=O)O)cn3C2CC2)CC1CN (racemic) [Gemifloxacin, (R,S)-7-(3-aminomethyl-4-methoxyiminopyrrolidin-1-yl)-1-cyclopropyl-6-fluoro-4-oxo-1,4-dihydro-1,8-naphthyridine-3-carboxylic acid]
MIC ([1]; Staphylococcus aureus (n = 50)): 0.00375 to 0.12 µg/mL (≈ 0.00963 to 0.308 µM)
MIC50 ([1]; Staphylococcus aureus (n = 50)): 0.06 µg/mL (≈ 0.154 µM)
MIC90 ([1]; Staphylococcus aureus (n = 50)): 0.12 µg/mL (≈ 0.308 µM)
MIC ([1]; β-lactamase negative (n = 20)): 0.06 to 0.12 µg/mL (≈ 0.154 to 0.308 µM)
MIC50 ([1]; β-lactamase negative (n = 20)): 0.12 µg/mL (≈ 0.308 µM)
MIC90 ([1]; β-lactamase negative (n = 20)): 0.12 µg/mL (≈ 0.308 µM)
MIC ([1]; β-lactamase positive (n = 20)): 0.00375 to 0.12 µg/mL (≈ 0.00963 to 0.308 µM)
MIC50 ([1]; β-lactamase positive (n = 20)): 0.12 µg/mL (≈ 0.308 µM)
MIC90 ([1]; β-lactamase positive (n = 20)): 0.123 µg/mL (≈ 0.316 µM)
MIC [1, 20]: 0.06 to 0.12 µg/mL (≈ 0.154 to 0.308 µM)
MIC50 [1, 20]: 0.06 µg/mL (≈ 0.154 µM)
MIC90 [1, 20]: 0.06 µg/mL (≈ 0.154 µM)
MIC90 [2]: 2 µg/mL (≈ 5.14 µM)
MIC Range [2]: 0.008 to 8 µg/mL
MIC distribution (µg/ml) 0.03 [3]: 0
MIC distribution (µg/ml) 0.06 [3]: 1
MIC distribution (µg/ml) 0.125 [3]: 4
MIC distribution (µg/ml) 0.25 [3]: 0
MIC distribution (µg/ml) 0.5 [3]: 4
MIC distribution (µg/ml) 1 [3]: 0
MIC distribution (µg/ml) 2 [3]: 0
MIC distribution (µg/ml) 4 [3]: 2
MIC distribution (µg/ml) 16 [3]: 3
MIC distribution (µg/ml) ≤0.015 [3]: 0
MIC distribution (µg/ml) ≥32 [3]: 0
MIC50 ([3]; Enterococcus faecium, n = 14 isolates, read-out: MIC50): 0.25 µg/mL (≈ 0.642 µM)
MIC90 ([3]; Enterococcus faecium, n = 14 isolates, read-out: MIC90): 16 µg/mL (≈ 41.1 µM)
MIC Range ([3]; n = 14 isolates): 0.06 to 16 µg/mL
MIC distribution (µg/ml) 8 ([3]; number of isolates at MIC 8 µg/ml, n = 14): 8
MIC90 [4]: 0.125 µg/mL (≈ 0.321 µM)
MIC Range [4, 21]: 0.063 to 32 µg/mL
MIC Range [4, 22]: 0.063 to 0.125 µg/mL
MIC50 [4, 21]: 1 µg/mL (≈ 2.57 µM)
MIC90 ([4]; Enterococcus faecalis ciprofloxacin resistant (n=15), read-out: MIC90): 8 µg/mL (≈ 20.5 µM)
MIC50 [4, 22]: 0.063 µg/mL (≈ 0.162 µM)
MIC Range [5]: 0.016 to 16 µg/mL
MIC50 ([5]; read-out: MIC50): 0.063 µg/mL (≈ 0.162 µM)
MIC90 ([5]; read-out: MIC90): 0.25 µg/mL (≈ 0.642 µM)
MIC50 [6]: ≤ 0.008 µg/mL
MIC90 [6]: 0.032 µg/mL (≈ 0.0822 µM)
MIC Range [6]: ≤0.008 to 0.032 µg/mL
in vitro activity against MTB [7]: lower in vitro activity
MIC Range [8, 23]: 0.016 to 0.125 µg/mL
MIC Range [8, 24]: ≤0.008 to 0.125 µg/mL
MIC Range [8, 25]: ≤0.008 to 0.125 µg/mL
MIC Range [8, 26]: 0.016 to 0.032 µg/mL
MIC50 [8, 23]: 0.032 µg/mL (≈ 0.0822 µM)
MIC90 [8, 23]: 0.032 µg/mL (≈ 0.0822 µM)
MIC50 [8, 24]: 0.016 µg/mL (≈ 0.0411 µM)
MIC90 [8, 24]: 0.032 µg/mL (≈ 0.0822 µM)
MIC50 [8, 25]: 0.016 µg/mL (≈ 0.0411 µM)
MIC90 [8, 25]: 0.032 µg/mL (≈ 0.0822 µM)
MIC50 [8, 26]: 0.032 µg/mL (≈ 0.0822 µM)
MIC90 [8, 26]: 0.032 µg/mL (≈ 0.0822 µM)
MIC ([8]; strain TMS1): 0.032 µg/mL (≈ 0.0822 µM)
MIC ([8]; strain TMS2): 0.5 µg/mL (≈ 1.28 µM)
activity higher than that of the other quinolones ([8]; quinolone-resistant S. pneumoniae): 2-128 fold
MIC50 ([9]; Escherichia coli): ≤ 0.03 µg/mL
MIC90 ([9]; Escherichia coli): 0.25 µg/mL (≈ 0.642 µM)
MIC Range [9]: ≤0.03 to 64 µg/mL
MIC50 ([10]; Enterobacter, read-out: MIC50): 0.06 µg/mL (≈ 0.154 µM)
MIC90 ([10]; Enterobacter, read-out: MIC90): 16 µg/mL (≈ 41.1 µM)
MIC Range [10]: ≤0.03 to 64 µg/mL
MIC ([11]; S. hadar(2), isolates with MICs for ciprofloxacin ≥[…]): 0.25 µg/mL (≈ 0.642 µM)
MIC ([11]; S. newport(1), isolate with MIC for ciprofloxacin ≥[…]): 0.25 µg/mL (≈ 0.642 µM)
MIC ([11]; S. virchow(2), isolates with MICs for ciprofloxacin ≥[…]): 0.12 µg/mL (≈ 0.308 µM)
MIC ([11]; Salmonella, S. tshiongwe(1), isolate with MIC for ciprofloxacin ≥[…]): 0.25 µg/mL (≈ 0.642 µM)
% Susceptible [12]: 100%
MIC50 [12]: ≤ 0.015 µg/mL
MIC90 [12]: ≤ 0.015 µg/mL
MIC Range [12]: ≤0.015 µg/mL
MIC Range [13, 27]: ≤0.008 to 0.125 µg/mL
MIC50 ([13]; Escherichia coli ciprofloxacin resistant (n=5)): 32 µg/mL (≈ 82.2 µM)
MIC90 ([13]; Escherichia coli ciprofloxacin resistant (n=5), values marked *: MIC80 value): 32 µg/mL (≈ 82.2 µM)
MIC50 [13, 27]: ≤ 0.008 µg/mL
MIC90 [13, 27]: 0.032 µg/mL (≈ 0.0822 µM)
MIC distribution (µg/ml) 0.03 [14]: 2
MIC distribution (µg/ml) 0.06 [14]: 2
MIC distribution (µg/ml) 0.125 [14]: 24
MIC distribution (µg/ml) 0.25 [14]: 22
MIC distribution (µg/ml) 1 [14]: 2
MIC distribution (µg/ml) 2 [14]: 1
MIC distribution (µg/ml) 4 [14]: 5
MIC distribution (µg/ml) 8 [14]: 9
MIC distribution (µg/ml) 16 [14]: 5
MIC distribution (µg/ml) ≤0.015 [14]: 0
MIC distribution (µg/ml) ≥32 [14]: 4
MIC50 ([14]; Enterococcus faecalis, n = 81 isolates, read-out: MIC50): 0.25 µg/mL (≈ 0.642 µM)
MIC90 ([14]; Enterococcus faecalis, n = 81 isolates, read-out: MIC90): 16 µg/mL (≈ 41.1 µM)
MIC distribution (µg/ml) 0.5 ([14]; number of isolates at MIC 0.5 µg/ml, n = 81): 5
MIC [15]: 2 µg/mL (≈ 5.14 µM)
MIC90 [16]: 0.008 µg/mL (≈ 0.0205 µM)
MIC Range [16]: ≤0.004 to 0.125 µg/mL
MIC ([17]; Moraxella catarrhalis (n = 50)): 0.00375 to 0.03 µg/mL (≈ 0.00963 to 0.077 µM)
MIC50 ([17]; Moraxella catarrhalis (n = 50)): 0.015 µg/mL (≈ 0.0385 µM)
MIC90 ([17]; Moraxella catarrhalis (n = 50)): 0.015 µg/mL (≈ 0.0385 µM)
MIC ([17]; β-lactamase negative (n = 13)): 0.00375 to 0.015 µg/mL (≈ 0.00963 to 0.0385 µM)
MIC50 ([17]; β-lactamase negative (n = 13)): 0.015 µg/mL (≈ 0.0385 µM)
MIC90 ([17]; β-lactamase negative (n = 13)): 0.015 µg/mL (≈ 0.0385 µM)
MIC ([17]; β-lactamase positive (n = 37)): 0.00375 to 0.03 µg/mL (≈ 0.00963 to 0.077 µM)
MIC50 ([17]; β-lactamase positive (n = 37)): 0.015 µg/mL (≈ 0.0385 µM)
MIC90 ([17]; β-lactamase positive (n = 37)): 0.015 µg/mL (≈ 0.0385 µM)
MIC Range [18, 28]: ≤0.008 to 64 µg/mL
MIC Range [18, 29]: ≤0.008 to 1 µg/mL
MIC50 [18, 28]: 1 µg/mL (≈ 2.57 µM)
MIC90 [18, 28]: 32 µg/mL (≈ 82.2 µM)
MIC50 [18, 29]: 0.063 µg/mL (≈ 0.162 µM)
MIC90 [18, 29]: 0.063 µg/mL (≈ 0.162 µM)
MIC ([18]; strain TMS1* (spontaneous mutant resistant to ciprofloxacin)): 0.032 µg/mL (≈ 0.0822 µM)
MIC ([18]; strain TMS2* (spontaneous mutant resistant to ciprofloxacin)): 1 µg/mL (≈ 2.57 µM)
MIC ([18]; strain TMS3, read-out: MIC): 32 µg/mL (≈ 82.2 µM)
MIC ([18]; strain TMS4, read-out: MIC): 4 µg/mL (≈ 10.3 µM)
MIC ([18]; strain TMS5, read-out: MIC): 2 µg/mL (≈ 5.14 µM)
MIC ([18]; strain TMS6, read-out: MIC): 0.25 µg/mL (≈ 0.642 µM)
MIC50 [19]: 0.031 µg/mL (≈ 0.0796 µM)
MIC90 [19]: 0.031 µg/mL (≈ 0.0796 µM)
MIC Range [19]: 0.016 to 0.031 µg/mL
